# Measured values: US10858335B2 (Rigel Pharmaceuticals, Inc., priority 2014, dated 2020)
# pIC50: −log10 of the molar value.
# System: GDF8 signaling (p-SMAD-3 (Ser423/425))
# Assay: AlphaScreen SureFire SMAD3 (p-Ser423/425) assay, GDF8-stimulated cells (GDF pSMAD)
# Type: cell-based
# Settings: Mus musculus, MPC-11, MPC11; GDF8-stimulated; p-SMAD3 AlphaScreen; read-out: GDF pSMAD (MPC11) (inhibition of GDF8 signaling)
row,Compound,pIC50
1,"Nc1ncnc2ccc(-c3cccnc3-c3cc(F)c(F)c(F)c3)cc12 [compound 469, 6-(2-(3,4,5-Trifluorophenyl)pyridin-3-yl)quinazolin-4-amine]",5.80
2,"COc1ccc(F)c(-c2ncccc2-c2ccc3ncnc(N)c3c2)c1 [compound 473, 6-(2-(2-Fluoro-5-methoxyphenyl)pyridin-3-yl)quinazolin-4-amine]",6.53
3,"CC(C)Oc1cccc(-c2ncccc2-c2ccc3ncnc(N)c3c2)c1 [compound 480, 6-(2-(3-isopropoxyphenyl)pyridin-3-yl)quinazolin-4-amine]",5.92
4,"N#CCOc1cccc(-c2ncccc2-c2ccc3ncnc(N)c3c2)c1 [compound 481, 2-(3-(3-(4-Aminoquinazolin-6-yl)pyridin-2-yl)phenoxy)acetonitrile]",5.89
5,"COCCOc1cccc(-c2ncccc2-c2ccc3ncnc(N)c3c2)c1 [compound 482, 6-(2-(3-(2-Methoxyethoxy)phenyl)pyridin-3-yl)quinazolin-4-amine]",5.77
6,"Nc1ncnc2ccc(-c3cccnc3-c3cccc(OCC(F)(F)F)c3)cc12 [compound 484, 6-(2-(3-(2,2,2-Trifluoroethoxy)phenyl)pyridin-3-yl)quinazolin-4-amine]",6.79
7,"Fc1ccc(-c2ncccc2-c2ccc3ncnc(Nc4cccnc4)c3c2)cc1Cl [compound 490, 6-(2-(3-Chloro-4-fluorophenyl)pyridin-3-yl)-N-(pyridin-3-yl)quinazolin-4-amine]",5.19
8,"Cc1ccc(Nc2ncnc3ccc(-c4cccnc4-c4ccc(F)c(Cl)c4)cc23)cn1 [compound 491, 6-(2-(3-Chloro-4-fluorophenyl)pyridin-3-yl)-N-(6-methylpyridin-3-yl)quinazolin-4-amine]",5.04
9,"Fc1ccc(-c2ncccc2-c2ccc3ncnc(Nc4ccncc4)c3c2)cc1Cl [compound 492, 6-(2-(3-Chloro-4-fluorophenyl)pyridin-3-yl)-N-(pyridin-4-yl)quinazolin-4-amine]",5.43
10,"Nc1ncc2ccc(-c3cccnc3-c3ccc(F)c(Cl)c3)cc2n1 [compound 496, 7-(2-(3-Chloro-4-fluorophenyl)pyridin-3-yl)quinazolin-2-amine]",6.11

# The remaining lines, values ahead:
row,pIC50,Compound
1,4.68,"Nc1ncnc2ccc(-c3cccnc3-c3ccc4c(c3)CCC4)cc12 [compound 470, 6-(2-(2,3-Dihydro-1H-inden-5-yl)pyridin-3-yl)quinazolin-4-amine]"
2,6.37,"COc1cc(-c2ncccc2-c2ccc3ncnc(N)c3c2)ccc1F [compound 474, 6-(2-(4-Fluoro-3-methoxyphenyl)pyridin-3-yl)quinazolin-4-amine]"
3,5.56,"Nc1ncnc2ccc(-c3cccnc3-c3ccc(F)c(C(F)(F)F)c3)cc12 [compound 476, 6-(2-(4-Fluoro-3-(trifluoromethyl)phenyl)pyridin-3-yl)quinazolin-4-amine]"
4,6.31,"N#Cc1cc(-c2ncccc2-c2ccc3ncnc(N)c3c2)ccc1F [compound 477, 5-(3-(4-Aminoquinazolin-6-yl)pyridin-2-yl)-2-fluorobenzonitrile]"
5,5.18,"CC(C)c1cccc(-c2ncccc2-c2ccc3ncnc(N)c3c2)c1 [compound 478, 6-(2-(3-Isopropylphenyl)pyridin-3-yl)quinazolin-4-amine]"
6,6.09,"Nc1ncnc2ccc(-c3cccnc3-c3cccc(OCC4CC4)c3)cc12 [compound 483, 6-(2-(3-(Cyclopropylmethoxy)phenyl)pyridin-3-yl)quinazolin-4-amine]"
7,6.03,"Nc1ncnc2ccc(-c3cccnc3-c3cc(O)cc(Cl)c3)cc12 [compound 493, 3-(3-(4-Aminoquinazolin-6-yl)pyridin-2-yl)-5-chlorophenol]"
8,6.97,"Nc1ncnc2ccc(-c3cccnc3-c3cc(O)cc(F)c3)cc12 [compound 494, 3-(3-(4-Aminoquinazolin-6-yl)pyridin-2-yl)-5-fluorophenol]"
9,6.61,"Cc1cc(O)cc(-c2ncccc2-c2ccc3ncnc(N)c3c2)c1 [compound 495, 3-(3-(4-Aminoquinazolin-6-yl)pyridin-2-yl)-5-methylphenol]"
